Data taken from US4503147A (priority 1981, dated 1985).
Structures can show the parent of a compound that is named as a salt.

test system: monomethylamine-oxidizing enzyme; test: Substrate specificity and Km of the purified monomethylamine-oxidizing enzyme; assay type: biochemical, Bacillus sp. N - 104 (FERM BP-59); conditions: pH 9.0
Procedure: […] To 1.0 ml of this substrate solution, is added 0.1 ml of an enzyme solution diluted with the same buffer solution and the mixture is subjected to reaction for 10 min. at 30° C. By adding 1 ml of 5N KOH solution, the enzymatic reaction is stopped. By this enzymatic reaction, monomethylamine is oxidatively decomposed to produce formaldehyde, ammonia and hydrogen peroxide. Then, to the reaction mixture is added 1 ml of 0.5 N hydrochloric acid solution containing 0.5% 4-amino-3-hydrazino-5-mercapto-1,2,4-triazole (to be abbreviated as AHMT hereinafter) and the mixture is subjected to reaction for 15 min. at 30° C. To the reaction mixture is added 1 ml of 0.2 N potassium hydroxide solution containing 0.75% KIO4 and the mixture is thoroughly stirred to develop a color. The colored solution is poured into a transparent cell and its absorption at 550 nm is measured to quantitatively determine the above produced formaldehyde.

**Q.** For `CN` [Monomethylamine], which Km is on record?
**A.** Its Km is 62 µM.

same assay, conditions: substrate concentration 10 mM; activity for monomethylamine taken as 100

**Q.** Which Relative activity does the source give for `N=C(N)NCCCCN` [Agmatine] here?
**A.** Its Relative activity is 1%.

**Q.** With `NCc1ccccc1` [Benzylamine] as the compound, how does the Relative activity read?
**A.** Its Relative activity is 1%.

**Q.** How did the Relative activity turn out when `NCN` [Diaminomethane] was run?
**A.** Its Relative activity is 16%.

**Q.** Which Relative activity does the source give for `CNC` [Dimethylamine] here?
**A.** The Relative activity was 0%.

**Q.** How did the Relative activity turn out when `NCCO` [Ethanolamine] was run?
**A.** The Relative activity was 1%.

**Q.** For `CCN` [Ethylamine], which Relative activity is on record?
**A.** Its Relative activity is 90%.

**Q.** Which Relative activity does the source give for `NCCN` [Ethylenediamine] here?
**A.** Its Relative activity is 0%.

**Q.** With `NCCc1c[nH]cn1` [Histamine] as the compound, how does the Relative activity read?
**A.** Its Relative activity is 1%.

**Q.** With `NO` [Hydroxylamine] as the compound, how does the Relative activity read?
**A.** The Relative activity was 0%.

**Q.** For `CN` [Monomethylamine], which Relative activity is on record?
**A.** Its Relative activity is 100%.

**Q.** Which Relative activity does the source give for `NCCCCN` [Putrescine] here?
**A.** Its Relative activity is 0%.

**Q.** For `CN(C)C` [Trimethylamine], which Relative activity is on record?
**A.** Its Relative activity is 0%.

**Q.** `NCCc1ccc(O)cc1` [Tyramine] was tested. Which Relative activity did it give?
**A.** The Relative activity was 0%.

**Q.** For `CC(C)CN` [i-Butylamine], which Relative activity is on record?
**A.** Its Relative activity is 2%.

**Q.** How did the Relative activity turn out when `CC(C)N` [i-Propylamine] was run?
**A.** The Relative activity was 0%.

**Q.** Which Relative activity does the source give for `CCCCCN` [n-Amylamine] here?
**A.** The Relative activity was 19%.

**Q.** Which Relative activity does the source give for `CCCCN` [n-Butylamine] here?
**A.** Its Relative activity is 18%.

**Q.** With `CCCCCCN` [n-Hexylamine] as the compound, how does the Relative activity read?
**A.** Its Relative activity is 10%.

**Q.** How did the Relative activity turn out when `CCCN` [n-Propylamine] was run?
**A.** The Relative activity was 60%.

test system: monomethylamine-oxidizing enzyme; test: not given; assay type: biochemical, Bacillus sp. N - 104 (FERM BP-59); conditions: 1 mM inhibitor, 10 min treatment at 30° C., pH 9; activity without inhibitor taken as 100
Procedure: Monomethylamine hydrochloride as substrate is dissolved into 0.1 M KH2 PO4 -Na2 B4 O7 buffer solution (pH 7) and the solution is ordinally adjusted to 1 mM concentration of substrate. To 1.0 ml of this substrate solution, is added 0.1 ml of an enzyme solution diluted with the same buffer solution and the mixture is subjected to reaction for 10 min. at 30° C. By adding 1 ml of 5N KOH solution, the enzymatic reaction is stopped. By this enzymatic reaction, monomethylamine is oxidatively decomposed to produce formaldehyde, ammonia and hydrogen peroxide. Then, to the reaction mixture is added 1 ml of 0.5 N hydrochloric acid solution containing 0.5% 4-amino-3-hydrazino-5-mercapto-1,2,4-triazole (to be abbreviated as AHMT hereinafter) and the mixture is subjected to reaction for 15 min. at 30° C. To the reaction mixture is added 1 ml of 0.2 N potassium hydroxide solution containing 0.75% KIO4 and the mixture is thoroughly stirred to develop a color. The colored solution is poured into a transparent cell and its absorption at 550 nm is measured to quantitatively determine the above produced formaldehyde.

**Q.** How did the Residual activity turn out when `[Cl][Hg][Cl]` [HgCl2] was run?
**A.** Its Residual activity is 0%.

**Q.** Which Residual activity does the source give for `NC(=O)CI` [iodoacetamide] here?
**A.** The Residual activity was 2.2%.

**Q.** For `O=C(O)c1cc[c]([Hg][Cl])cc1` [p-chloromercuribenzoic acid], which Residual activity is on record?
**A.** Its Residual activity is 0.7%.

**Q.** Which Residual activity does the source give for `NNC(N)=O` [semicarbazide hydrochloride] here?
**A.** Its Residual activity is 0%.

same assay, conditions: 5 mM inhibitor, 10 min treatment at 30° C., pH 9; activity without inhibitor taken as 100

**Q.** For `c1cnc2c(c1)ccc1cccnc12` [O-phenanthroline], which Residual activity is on record?
**A.** Its Residual activity is 70.9%.

**Q.** How did the Residual activity turn out when `CCN(CC)C(=S)[S-].[Na+]` [sodium diethyldithiocarbamate] was run?
**A.** Its Residual activity is 59.3%.

same assay, conditions: pH 9

**Q.** How did the Residual activity turn out when `Oc1cccc2cccnc12` [8-oxyquinoline] was run?
**A.** Its Residual activity is 34.0%.

**Q.** For `O=C(O)CI` [monoiodoacetic acid], which Residual activity is on record?
**A.** Its Residual activity is 34.0%.
